Test [1] has as its system SMN2 minigene (full length SMN2 minigene mRNA containing SMN2 exon 7). Put plainly: SMN2 minigene mRNA splicing RT-qPCR assay in cultured cells. In kind it is cell-based, human. To be noted: Homo sapiens, HEK293-H, read-out: EC1.5x for production of full length SMN2 mRNA. Here is the method:
The reverse transcription-quantitative PCR-based (RT-qPCR) assay is used to quantify the level of the full length SMN2 minigene mRNA containing SMN2 exon 7 in a HEK293H cell line stably transfected with said minigene and treated with a test compound.
Protocol. HEK293H cells stably transfected with the SMN2-A minigene construct described above (10,000 cells/well) are seeded in 200 μL of cell culture medium (DMEM plus 10% FBS, with 200 μg/mL hygromycin) in 96-well flat-bottom plates and the plate is immediately swirled to ensure proper dispersal of cells, forming an even monolayer of cells. Cells are allowed to attach for at least 4-6 hours. […] A solution of test compound (1 μL, 200× in DMSO) is added to each cell-containing well and the plate is incubated for 24 hours in a cell culture incubator (37° C., 5% CO2, 100% relative humidity). 2 replicates are prepared for each test compound concentration. The cells are then lysed in Cells-To-Ct lysis buffer and the lysate is stored at −80° C.
The combination of these three oligonucleotides detects only SMN1 or SMN2 minigenes (RT-qPCR) and will not detect endogenous SMN1 or SMN2 genes.
The SMN forward and reverse primers are used at final concentrations of 0.4 μM.
The SMN2-minigene GAPDH mix (15 μL total volume) is prepared by combining 7.5 μL of 2×RT-PCR buffer, 0.4 μL of 25×RT-PCR enzyme mix, 0.75 μL of 20×GAPDH primer-probe mix, 4.0075 μL of water, 2 μL of 10-fold diluted cell lysate, 0.06 μL of 100 μM SMN forward primer, 0.06 μL of 100 μM SMN reverse primer, and 0.225 μL of 100 μM SMN probe.
PCR is carried out at the following temperatures for the indicated time: Step 1: 48° C. (15 min); Step 2: 95° C. (10 min); Step 3: 95° C. (15 sec); Step 4: 60° C. (1 min); then repeat Steps 3 and 4 for a total of 40 cycles.
Each reaction mixture contains both SMN2-A minigene and GAPDH primers/probe sets (multiplex design), allowing simultaneous measurement of the levels of two transcripts.
Two SMN spliced products are generated from the SMN2 minigene. The first spliced product containing exon 7, corresponding to full length SMN2 mRNA, is called SMN2mini FL. The second one lacking exon 7 is called SMN2mini Δ7.
The amplification efficiency E is calculated from the slope of the amplification curve for SMN2mini FL and GAPDH individually. The abundances of SMN2mini FL and GAPDH are then calculated as […], where Ct is the threshold value for each amplicon. The abundance of SMN2mini FL is normalized to GAPDH abundance. The normalized SMN2mini FL abundance from test compound-treated samples is then divided by normalized SMN2mini FL abundance from vehicle-treated cells to determine the level of SMN2 FL mRNA relative to vehicle control.
An EC1.5x for production of full length SMN2 mRNA between >3 μM and ≤30 μM is indicated by one star (*), an EC1.5x between >1 μM and ≤3 μM is indicated by two stars (**), an EC1.5x between >0.3 μM and ≤1 μM is indicated by three stars (***), an EC1.5x between >0.1 μM and ≤0.3 μM is indicated by four stars (****) and an EC1.5x≤0.1 μM is indicated by five stars (*****).
(In qPCR the cycle at which signal appears reflects the starting amount.)

Test [2] concerns Smn protein. Kind of test: Smn protein assay in cultured cells (SMN HTRF). The conditions noted are these: for EC1.5x (concentration giving 1.5-fold Smn protein increase): SMA Type 1 patient fibroblast cells (GM03813), 7-point concentration curve, SMN HTRF, concentration producing 1.5 times Smn protein vs DMSO vehicle control, read-out: EC1.5x for Smn protein expression. In kind it is cell-based, human. On the procedure: The SMN HTRF (homogeneous time resolved fluorescence) assay is used to quantify the level of Smn protein in SMA patient fibroblast cells treated with test compounds.
Protocol. Cells are thawed and cultured in DMEM-10% FBS for 72 hours. Cells are trypsinized, counted and resuspended to a concentration of 25,000 cells/mL in DMEM-10% FBS. […] 1 μL of test compound solution is transferred to cell-containing wells and cells are incubated for 48 hours in a cell culture incubator (37° C., 5% CO2, 100% relative humidity). Triplicate samples are set up for each test compound concentration. After 48 hours, the supernatant is removed from the wells and 25 μL of the RIPA lysis buffer, containing protease inhibitors, is added to the wells and incubated with shaking at room temperature for 1 hour. 25 μL of the diluent is added and then 35 μL of the resulting lysate is transferred to a 384-well plate, where each well contains 5 μL of the antibody solution (1:100 dilution of anti-SMN d2 and anti-SMN kryptate in SMN reconstitution buffer). The plate is centrifuged for 1 minute to bring the solution to the bottom of the wells, then incubated overnight at room temperature. Fluorescence for each well of the plate at 665 nm and 620 nm is measured on an EnVision multilabel plate reader (Perkin-Elmer).
The normalized fluorescence signal is calculated for each sample, Blank and vehicle control well by dividing the signal at 665 nm by the signal at 620 nm. Normalizing the signal accounts for possible fluorescence quenching due to the matrix effect of the lysate. The ΔF value (a measurement of Smn protein abundance) for each sample well is calculated by subtracting the normalized average fluorescence for the Blank control wells from the normalized fluorescence for each sample well and then dividing this difference by the normalized average fluorescence for the Blank control wells. The resulting ΔF value for each sample well represents the Smn protein abundance from test compound-treated samples. The ΔF value for each sample well is divided by the ΔF value for the vehicle control wells to calculate the fold increase in Smn protein abundance relative to the vehicle control.
An EC1.5x for Smn protein expression between >3 μM and ≤10 μM is indicated by one star (*), an EC1.5x between >1 and ≤3 μM is indicated by two stars (**), an EC1.5x between >0.3 μM and ≤1 μM is indicated by three stars (***) and an EC1.5x≤0.3 μM is indicated by four stars (****).
(In TR-FRET formats the signal depends on donor and acceptor labels being close together.)

Setting [3] is: HEK293H cells stably transfected with SMN2-A minigene, 24 hours, 7-point concentration curve, 1.5-fold relative to vehicle-treated cells.
Where [4] appears, read: SMA patient fibroblast cells, 48 hours, 7-point concentration data, fold increase relative to vehicle control (SMN HTRF).

Where a name gives a salt, the structure may show the parent alone. Read-outs that look alike come from different tables or passages of the source. Bounds are passed on as bounds.

In the case of `Cc1cn2cc(-c3cc4ccc(N[C@H]5CCNC5)cc4oc3=O)nc2c(C)n1` [Cpd 563, 3-(6,8-dimethylimidazo[1,2-a]pyrazin-2-yl)-7-[(3S)-pyrrolidin-3-ylamino]-2H-chromen-2-one], the EC (1.5-fold) in test [1] (setting [3]) is under 0.1 µM. Also, the EC1.5x (concentration giving 1.5-fold Smn protein increase) in test [2] (48 hours) was under 300 nM. Moreover, the “maximum fold (Fold) increase of Smn protein” value (from here on “maximum fold (Fold) increase”) in test [2] (setting [4]) is recorded as “***** (fold increase >1.65)”.
For `Cc1cn2cc(-c3cc4ccc(N5CCN(C6CC6)CC5)cc4oc3=O)cc2c(C)n1` [Compound 752, 7-(4-cyclopropylpiperazin-1-yl)-3-(1,3-dimethylpyrrolo[1,2-a]pyrazin-7-yl)-2H-chromen-2-one], in test [1] (setting [3]), the EC (1.5-fold) was under 0.1 µM. Further, in test [2] (48 hours), the EC1.5x (concentration giving 1.5-fold Smn protein increase) lay in the range of 300 to 1000 nM. Besides, in test [2] (setting [4]), the “maximum fold (Fold) increase” value is “**** (fold increase between >1.5 and ≤1.65)”.
For the compound `O=C(O)C(F)(F)F.O=c1oc2cc(N3CCNCC3)ccc2cc1-c1nc2c(C(F)(F)F)cccc2o1` [Compound 1, 7-(piperazin-1-yl)-3[4-(trifluoromethyl)-1,3-benzoxazol-2-yl]-2H-chromen-2-one trifluoroacetate], the EC (1.5-fold) in test [1] (setting [3]) fell in the range of 0.3 to 1 µM. Besides, the “maximum fold (Fold) increase” value in test [2] (setting [4]) was “* (maximum fold increase of ≤1.2)”.
`Cc1cc2cc(-c3cc4ccc(N5CCN(C6CC6)CC5)cc4oc3=O)oc2c(C)n1` [Compound 798, 7-(4-cyclopropylpiperazin-1-yl)-3-(5,7-dimethylfuro[2,3-c]pyridin-2-yl)-2H-chromen-2-one]: the EC (1.5-fold) in test [1] (setting [3]) lay within 0.1 to 0.3 µM. In addition, the EC1.5x (concentration giving 1.5-fold Smn protein increase) in test [2] (48 hours) was in the range of 300 to 1000 nM. Moreover, the “maximum fold (Fold) increase” value in test [2] (setting [4]) was “**** (fold increase between >1.5 and ≤1.65)”.
On to `Cc1cn2cc(-c3cc4ccc(N5CCN[C@H](C)C5)cc4oc3=O)nc2cn1` [Compound 570, 3-(6-methylimidazo[1,2-a]pyrazin-2-yl)-7-[(3R)-3-methylpiperazin-1-yl]-2H-chromen-2-one], for which, in test [1] (setting [3]), the EC (1.5-fold) is under 0.1 µM. Moreover, in test [2] (48 hours), the EC1.5x (concentration giving 1.5-fold Smn protein increase) was under 300 nM. Further, the “maximum fold (Fold) increase” value in test [2] (setting [4]) is on record as “***** (fold increase >1.65)”.
The corresponding values for `Cc1cn2cc(-c3cc4c(F)cc(N5CCN[C@@H](C)C5)cc4oc3=O)nc2cn1` [Compound 593, 5-fluoro-3-(6-methylimidazo[1,2-a]pyrazin-2-yl)-7-[(3S)-3-methylpiperazin-1-yl]-2H-chromen-2-one] are under 0.1 µM, under 300 nM and “***** (fold increase >1.65)”.
Take `C[C@H]1CN(c2ccc3cc(-c4ccc5nccn5c4)c(=O)oc3c2)CCN1` [Compound 981, 3-(imidazo[1,2-a]pyridin-6-yl)-7-[(3S)-3-methylpiperazin-1-yl]-2H-chromen-2-one]: the EC (1.5-fold) in test [1] (setting [3]) was 0.1 to 0.3 µM. Further, the EC1.5x (concentration giving 1.5-fold Smn protein increase) in test [2] (48 hours) is 1000 to 3000 nM. Moreover, the “maximum fold (Fold) increase” value in test [2] (setting [4]) is “**** (fold increase between >1.5 and ≤1.65)”.
Turning to `Cc1cn2cc(-c3cc4ccc(N5CCN(C)CC5)cc4oc3=O)nc2cn1` [Compound 568, 3-(6-methylimidazo[1,2-a]pyrazin-2-yl)-7-(4-methylpiperazin-1-yl)-2H-chromen-2-one], in test [1] (setting [3]), the EC (1.5-fold) was under 0.1 µM. Besides, the EC1.5x (concentration giving 1.5-fold Smn protein increase) in test [2] (48 hours) was under 300 nM. The “maximum fold (Fold) increase” value in test [2] (setting [4]) is “***** (fold increase >1.65)”.
In the case of `COCCN1CCN(c2ccc3cc(-c4cc5c(C)nc(C)cc5s4)c(=O)oc3c2)CC1` [Compound 820, 3-(4,6-dimethylthieno[3,2-c]pyridin-2-yl)-7-[4-(2-methoxyethyl)piperazin-1-yl]-2H-chromen-2-one], in test [1] (setting [3]), the EC (1.5-fold) was in the range of 0.3 to 1 µM. Besides, the “maximum fold (Fold) increase” value in test [2] (setting [4]) was “** (fold increase between >1.2 and ≤1.35)”.
Regarding `Cc1cn2cc(-c3cc4ccc(N5C[C@@H](C)N[C@@H](C)C5)cc4oc3=O)nc2c(C)n1` [Compound 517, 3-(6,8-dimethylimidazo[1,2-a]pyrazin-2-yl)-7-[(3R,5S)-3,5-dimethylpiperazin-1-yl]-2H-chromen-2-one], the EC (1.5-fold) in test [1] (setting [3]) is under 0.1 µM. In test [2] (48 hours), the EC1.5x (concentration giving 1.5-fold Smn protein increase) is under 300 nM. The “maximum fold (Fold) increase” value in test [2] (setting [4]) is listed as “***** (fold increase >1.65)”.
Take `Cc1cn2cc(-c3cc4ccc(OCCN5CC[C@H](O)C5)cc4oc3=O)nc2c(C)n1` [Compound 954, 3-(6,8-dimethylimidazo[1,2-a]pyrazin-2-yl)-7-{2-[(3S)-3-hydroxypyrrolidin-1-yl]ethoxy}-2H-chromen-2-one]: in test [1] (setting [3]), the EC (1.5-fold) was under 0.1 µM. Also, the EC1.5x (concentration giving 1.5-fold Smn protein increase) in test [2] (48 hours) is under 300 nM. The “maximum fold (Fold) increase” value in test [2] (setting [4]) was “***** (fold increase >1.65)”.
In the case of `O=c1oc2cc(OC3CCNC3)ccc2cc1-c1cn2cccnc2n1` (stereo in doubt) [Cpd 321, 3-(imidazo[1,2-a]pyrimidin-2-yl)-7-[(3R)-pyrrolidin-3-yloxy]-2H-chromen-2-one hydrochloride (1:2)], the EC (1.5-fold) in test [1] (24 h) was in the range of 1 to 3 µM. Besides, in test [2], the “maximum fold (Fold) increase” value was “** (key: *: maximum fold increase of ≤1.2; **: fold increase between >1.2 and ≤1.35; ***: fold increase between >1.35 and ≤1.5; ****: fold increase between >1.5 and ≤1.65; *****: fold increase >1.65)”.
Turning to `O=c1oc2cc(N3CCNCC3)ccc2cc1-c1nc2ccccc2s1` [Cpd 4, 3-(1,3-benzothiazol-2-yl)-7-(piperazin-1-yl)-2H-chromen-2-one hydrochloride], the EC (1.5-fold) in test [1] (setting [3]) was in the range of 1 to 3 µM. In addition, in test [2] (setting [4]), the “maximum fold (Fold) increase” value is “* (maximum fold increase of ≤1.2)”.
Turning to `CCN1CCCN(c2ccc3cc(-c4cn5cc(C)ncc5n4)c(=O)oc3c2)CC1` [Compound 618, 7-(4-ethyl-1,4-diazepan-1-yl)-3-(6-methylimidazo[1,2-a]pyrazin-2-yl)-2H-chromen-2-one], in test [1] (setting [3]), the EC (1.5-fold) was under 0.1 µM. Moreover, the EC1.5x (concentration giving 1.5-fold Smn protein increase) in test [2] (48 hours) was under 300 nM. Further, the “maximum fold (Fold) increase” value in test [2] (setting [4]) was “**** (fold increase between >1.5 and ≤1.65)”.

The values above are taken from patent USRE47689E1, “Compounds for treating spinal muscular atrophy” (PTC Therapeutics, Inc., priority 2011, dated 2019).
